One series concerns SKmel-25. The format is cell-based, human. The protocol: (§1) Murine B16F10-Nex2 melanoma cells (cloned at the Experimental Oncology Unit, Federal University of São Paulo, UNIFESP), and human SKmel28 and SKmel25 human melanoma cell lines originally obtained from the Memorial Sloan Kettering Cancer Center, New York, were cultured at 37°C, under humid atmosphere and 5% CO2, in RPMI-1640 medium with 10 mM N-2-hydroxyethylpiperazine-N2 ethanesulphonic acid (HEPES), 24 mM sodium bicarbonate, 40 mg/L gentamycin, pH 7.2 and 10% FCS.
(§2) Synthetic CDRs, scrambled peptides (controls), and […] of mAb C7/pc42 H2, selected for the highest cytotoxic activity, were diluted from 1 mM to 0.05 mM in RPMI with 10% FCS and incubated with B16F10-Nex2, SKmel28 and SKmel25 cells (5×10^3 cells/well) in 100 µL per well for 12 h at 37°C. Each peptide was tested in triplicate. After 12 h, the cytotoxic activities of the peptides were determined by measuring cell viability by Trypan Blue exclusion.

The test system of a further series is SKmel-28. The format is cell-based, human. The protocol: as §1, §2
In the next series the test system is Candida albicans UP10. The format is cell-based. To be noted: for Anti-Candida activity (%) at 100 µg/mL: CDR peptides, 100 µg/mL in distilled water, 37°C, 6 h, CFU after 48–72 h, triplicate, C. albicans UP10.
Series [1] concerns B16F10-Nex2 murine melanoma cells. The format is cell-based. The following applies: 12 h.
For the next series, the system named is HIV-1 BaL (R5). Description: In vitro exogenous HIV-1 infection of PHA-stimulated PBMCs, BaL strain (p24 assay). Format: cell-based. To be noted: day 10, p24, mean of 3 determinations.
A further series has as its system C. albicans NCPF 3153. Description: Murine invasive candidiasis, i.p. peptide treatment. Format: in vivo, BALB/c mice. The following applies: day 5 post-infection; 200 µg peptide i.p. x3; saline 160.3±46.6. The protocol:
Animal experiments were approved by the Institutional Review Board of the School of Medicine and Odontology at the University of the Basque Country, Spain. Female BALB/c mice, 8-weeks old (11–12 animals/group), were infected intravenously with 5×10^5 C. albicans NCPF 3153 yeast cells suspended in 0.1 mL saline. Mice were treated i.p. with 200 µg of mAb C7 L1 and mAb C7/pc42 H1 and H2 for 3 days starting on day 0, and 4 h after the fungal challenge, and at 24 and 48 h thereafter. Control mice were injected with saline (same treatment schedule as those treated with the CDRs). Protection was evaluated by monitoring animal survival for 20 days. The mean survival time and numbers of CFU of C. albicans in infected tissues were calculated as reported previously.
The Kaplan-Meier log rank test was applied to survival data. Data on CFU in infected tissues were analyzed by Student's t test. p values of 0.05 were considered significant.

Another series concerns HIV-1 IIIB (X4). Briefly: In vitro exogenous HIV-1 infection of PHA-stimulated PBMCs, IIIB strain (p24 assay). The format is cell-based. To be noted: day 10, p24, mean of 3 determinations.
For the next series, the system named is R5 HIV-1. The format is cell-based. The following applies: 10 µg/ml; for % inhibitory activity (10 µg/ml), endogenous HIV-1 replication: ex vivo, day 10 of culture, p24, mean of 3 determinations.
The test system of the next series is HUVEC. Description: In vitro Matrigel angiogenesis assay. The format is cell-based, human. To be noted: peptides at 1 mM, C7/pc42 H2 at 50 µM; 18 h, 37°C; triplicate wells. The protocol: Matrigel™ Matrix (B&D Biosciences, Bedford, MA, USA) was thawed on ice, added (10 µL/well) to coat 96-well plates, and allowed to polymerize for 1 h at 37°C. Human umbilical vein endothelial cells (HUVEC) (5×10^3cells/well) were added alone or mixed with mAb C7 CDR peptides in 100 µL of RPMI medium supplemented with 0.2% of FCS in each well. All peptides were used at 1 mM, with the exception of mAb C7/pc42 H2 that was used at 50 µM. The plates were incubated at 37°C for 18 h and images were captured at 8× magnification with a Sony Cyber-shot camera coupled to a light microscope. The number of pro-angiogenic structures (closed rings formed at a given time by endothelial cell sprouting) was counted from 3 different wells, and the average value determined in each system, [45]. The assay was repeated at least three times.

The values below come from PMC2396520, “Antibody Complementarity-Determining Regions (CDRs) Can Display Differential Antimicrobial, Antiviral and Antitumor Activities” (PLoS ONE, 2008).

pEC50: −log10 of the molar value. Where a SMILES comes first, the peptide text is derived from it.

Description for Candida albicans UP10: The alanine substituted derivatives (asd), defined according to the position held by the alanine-substituted aminoacid, were tested in the same biological assays to critically establish the functional relevance of each residue [5]. In vitro microbicidal activity of CDR peptides and selected asd against C. albicans UP 10 (clinical isolate from the fungi collection of the University of Parma) and C. albicans NCPF 3153 (National Collection of Pathogenic Fungi, Bristol, UK) were used for the in vitro experiments.
The microbicidal activity of synthetic CDRs against C. albicans strains was preliminarily evaluated by testing 100 µg/mL of each synthetic peptide by colony forming unit (CFU) assays as previously described [5]. Briefly, 10 µL of a distilled water suspension containing ∼5×10^4/mL germinating yeast cells were added to 90 µL of distilled water containing the synthetic peptide to be tested. Yeast suspensions were incubated at 37°C for 6 h. After incubation, the cell suspensions were plated on Sabouraud dextrose agar, incubated at 30°C and observed for CFU determination after 48–72 hours. Each assay was carried out in triplicate. […] EC50 was calculated by nonlinear regression analysis using Graph Pad Prism 4.01 software, San Diego, CA, USA.
Description for HIV-1 BaL (R5): (§3) Briefly, for endogenous HIV-1 replication assays peripheral blood mononuclear cells (PBMCs) from R5 HIV-1-infected patients characterized by high viral RNA titers in plasma and cell-associated viremia were cultured in 96-well plates at 1×10^6 cells/mL in RPMI 1640 medium with 10% fetal calf serum (FCS) and 20 U/mL of rIL-2. Exogenous rIL-2 was added every 3–4 days. Cultures were treated with synthetic mAb CDRs and mAb C7/pc42 H1 asd at 10 µg/mL during the time of culture. Virus production on days 5 and 10 was assayed in the supernatants using ultrasensitive Alliance® HIV-1 p24 ELISA kit (Perkin Elmer); p24 Ag in the supernatants of untreated cultures corresponded to 100% of viral production. For exogenous infection assays, PHA-stimulated PBMCs obtained from healthy individuals were infected with BaL (R5) or IIIB (X4) HIV-1 strain at a median tissue culture infective dose (TCID50) of 500 TCID50/ml. After 2 h of adsorption, the cells were washed, suspended at 2×10^5 cells/ml in medium and cultured in 96-well cultures plates. At time zero of infection, synthetic peptides were added to the cultures at 10 µg/ml and were maintained throughout the experiment. All assays were performed in triplicate. Virus production was assayed 10 days after infection in the supernatants of HIV-1-infected PBMCs by p24 assay.
Description for HIV-1 IIIB (X4): as §3
Description for R5 HIV-1: as §3

Turning to `CC[C@H](C)[C@H](NC(=O)[C@@H](N)Cc1ccc(O)cc1)C(=O)N[C@@H](CO)C(=O)N[C@@H](CS)C(=O)N[C@@H](Cc1ccc(O)cc1)C(=O)N[C@@H](CC(N)=O)C(=O)NCC(=O)N[C@@H](C)C(=O)N[C@H](C(=O)N[C@@H](CO)C(=O)N[C@@H](Cc1ccc(O)cc1)C(=O)N[C@@H](CC(N)=O)C(=O)N[C@@H](CCC(N)=O)C(=O)N[C@@H](CCCCN)C(=O)N[C@@H](Cc1ccccc1)C(=O)N[C@@H](CCCCN)C(=O)O)[C@@H](C)O` [C7/pc42 H2] (H-YISCYNGATSYNQKFK-OH), the “cytotoxicity to human melanoma cell line SKmel-25” value in the series with SKmel-25 is given as “equally cytotoxic”. In the series on SKmel-28, the “cytotoxicity to human melanoma cell line SKmel-28” value was “equally cytotoxic”. The negative-log EC50 (pEC50) is 5.38 with Candida albicans UP10 (UP10, 6 h) and 4.27 in [1].
As to “GYYMH [C7/pc42 H1, synthetic peptide identical to heavy chain CDR H1 shared by mAb C7 and mAb pc42]”, the “% inhibitory activity (10 µg/ml), exogenous HIV-1 replication, BaL” value (shortened to “% inhibitory activity (10 µg/ml) … BaL”) with HIV-1 BaL (R5) is listed as 24%. In addition, the “CFU counts in kidney tissue” value with C. albicans NCPF 3153 is 119.6±35.5. For the same compound, the “Anti-Candida activity (%) at 100 µg/mL” value in the series on Candida albicans UP10 is 69.2%. Also, the “% inhibitory activity (10 µg/ml), exogenous HIV-1 replication, IIIB” value (from here on “% inhibitory activity (10 µg/ml) … IIIB”) in the series with HIV-1 IIIB (X4) is listed as 0%. Further, in the series with R5 HIV-1 (ex vivo conditions), the “inhibition of R5 HIV-1 replication in treated cultures” value is recorded as more than 50%. The “% inhibitory activity (10 µg/ml), endogenous HIV-1 replication” value in the series on R5 HIV-1 came out at 58%.
Consider “QHIRELTRSE [pc42 L3, synthetic peptide identical to light chain CDR L3 of mouse mAb pc42]”, for which the “% inhibitory activity (10 µg/ml) … BaL” value in the series on HIV-1 BaL (R5) is 0%. In the series on Candida albicans UP10, the “Anti-Candida activity (%) at 100 µg/mL” value is listed as 83.9%. In addition, the “% inhibitory activity (10 µg/ml) … IIIB” value in the series on HIV-1 IIIB (X4) was found to be 0%. In the series with R5 HIV-1, the “% inhibitory activity (10 µg/ml), endogenous HIV-1 replication” value amounted to 0%.
Consider “SYTFH [HuA H1, synthetic peptide identical to heavy chain CDR H1 of human IgM mAb HuA]”, for which, in the series with HIV-1 BaL (R5), the “% inhibitory activity (10 µg/ml) … BaL” value came out at 84%. The “Anti-Candida activity (%) at 100 µg/mL” value with Candida albicans UP10 came to 12.9%. In addition, in the series on HIV-1 IIIB (X4), the “% inhibitory activity (10 µg/ml) … IIIB” value is 0%. In addition, the “% inhibitory activity (10 µg/ml), endogenous HIV-1 replication” value with R5 HIV-1 came to 38%.
As to “VLAYDGSYQHYADSVKG [HuA H2, synthetic peptide identical to heavy chain CDR H2 of human IgM mAb HuA]”, the “% inhibitory activity (10 µg/ml) … BaL” value with HIV-1 BaL (R5) is recorded as 74%. In addition, the “Anti-Candida activity (%) at 100 µg/mL” value in the series with Candida albicans UP10 was found to be 0%. Moreover, the “% inhibitory activity (10 µg/ml) … IIIB” value in the series on HIV-1 IIIB (X4) is 0%. The “% inhibitory activity (10 µg/ml), endogenous HIV-1 replication” value with R5 HIV-1 was found to be 40%.
Regarding “WASTRES [C7 L2, synthetic peptide identical to light chain CDR L2 of mouse mAb C7]”, the “endothelial cell sprouting on Matrigel” value in the series on HUVEC is “inhibited endothelial cell sprouting”. Moreover, the “% inhibitory activity (10 µg/ml) … BaL” value in the series with HIV-1 BaL (R5) is 59%. In addition, the “Anti-Candida activity (%) at 100 µg/mL” value in the series on Candida albicans UP10 stood at 49.8%. Moreover, in the series on HIV-1 IIIB (X4), the “% inhibitory activity (10 µg/ml) … IIIB” value was 4%. Moreover, the “% inhibitory activity (10 µg/ml), endogenous HIV-1 replication” value in the series with R5 HIV-1 came out at 38%.

For orientation: pEC50 means −log10 of the EC50, conventionally taken in molar units. The low end stands for a large EC50, the high end for a small EC50.
